Test results as given in patent publication US20240308995A1, “O-GLYCOPROTEIN-2-ACETAMIDO-2-DEOXY-3-D-GLUCOPYRANOSIDASE INHIBITORS” (BIOGEN MA INC., priority 2018, published 2024).

Assays:
[1] = Rat Liver Microsome Stability Assay; assay type: in vitro ADME; settings: rat liver microsomes, 1 uM compound
[2] = biological target: Recombinant full length human OGA enzyme (Homo sapiens (Human), UniProt O60502); experiment: OGA Enzyme Inhibition Biochemical Assay; settings: 1 nM OGA, 100 μM 4-MUGlcNAc, pH 6.4
Method: Recombinant full length human OGA enzyme was purchased from Origene. 4-MUGlcNAc substrate was purchased from Sigma. All other reagents were purchased from Sigma or Fisher. Assay buffer consists of the McIlvaine buffer system, pH 6.4 (0.2M Na2HPO4 mixed with 0.1M citric acid) and 0.01% BSA. […] Reactions were incubated for 90 minutes at room temperature and quenched with 40 μl of 3M glycine, pH 10 and read on a Perkin Elmer Envision plate reader (Ex: 355 nm/Em: 460 nm). Compounds were tested with a 10-point dose-response starting from 20 μM with a 4-fold dilution. Data was fit using GraphPad Prism using a 4-parameter fit with variable slope.

[3] = biological target: OGA (S400 O-GLCNAC), HEK-293T cells transfected with Tau-V5 (Homo sapiens (Human), UniProt O60502); experiment: Cellular OGA-Tau MSD Assay; assay type: cell-based
Method: HEK-293T cells were transfected with […] and Tau-V5 plasmids using Lipofectamine and grown overnight. Next day, the cells were collected and re-plated at 1×10^5 cells per well in 96 well plates. Cells were incubated for 4 hr at 37° C., before compounds were added at 1 uM, with 3-fold dilutions in a 10-point titration. Cell plates were incubated with compounds overnight at 37° C. The next day media was removed from wells by gentle aspiration and 120 ul of 1× Cell Lysis buffer mixed with protease and phosphatase cocktail added to each well. A freeze thaw was performed at -80° C., then mixed before transferring 50 ul to MSD plates coated with V5-tag antibody to capture Tau. MSD Plates were incubated overnight at 4° C., on a plate shaker. The following day, plates were washed and incubated with Tau-[…]-GlcNAc antibody for 2 hr and then developed with rabbit Sulfo-tag antibody. Final read out was carried out on an MSD 600 reader. The data was analyzed using Graph Pad or Genedata, the data was normalized and % activity versus log of compound concentration was plotted. The IC50 values were obtained from a 4 parameter fit.

P-gp (MDR1) = experiment: MDR1-MDCK Efflux Ratio Assay; assay type: in vitro ADME; settings: dog, MDCK-MDR1, pH 7.4, MDR1-MDCK cells, 2 hr, pH 7.4; read-out: MDR1-MDCK Efflux Ratio (B-A/A-B)
Method: MDR1-MDCK cell monolayers were grown to confluence on microporous polyester membranes in 96-well Corning insert plates. The permeability assay buffer was Hanks' Balanced Salt Solution containing 10 mM HEPES at pH of 7.4. Loperamide (1 μM) was used as a positive control P-gp substrate. Propranolol and Bestatin (1 μM) were used as high and low permeability comparators, respectively. Test compounds or positive control P-gp substrate/permeability comprators were added to respective apical and basolateral chambers for bidirectional assessment of permeability. Receiver buffer (transport buffer supplemented with 1% bovine serum albumin) was added to respective receiver chambers. MDR1-MDCK cells were incubated with test compounds at 37° C. with 5% CO2 for 2 hr. Samples were collected from the donor chamber at both 0 and 120 minutes, and from the receiver chamber at 120 minutes. Test and control compound concentrations were determined using LC-MS/MS analysis. Each determination was performed in triplicate. The apparent permeability (Papp), efflux ratio and mass balance (percent recovery) were calculated as follows: [formula] where: dCr/dt is the cumulative concentration in the receiver compartment versus time in μM s^−1 Vr is the volume of the receiver compartment in cm^3 Vd is the volume of the donor compartment in cm^3 A is the area of the insert (0.143 cm^2 for 96-well insert) CE is the estimated experimental concentration (Time=0) of the dosing solution Cr^final is the concentration of the receiver at the end of the incubation period Cd^final is the concentration of the donor at the end of the incubation period.

[4] = HEK-293T cells, Tau-S400-GlcNAc MSD readout

Recombinant full length human OGA enzyme, sequence (O60502 whole entry): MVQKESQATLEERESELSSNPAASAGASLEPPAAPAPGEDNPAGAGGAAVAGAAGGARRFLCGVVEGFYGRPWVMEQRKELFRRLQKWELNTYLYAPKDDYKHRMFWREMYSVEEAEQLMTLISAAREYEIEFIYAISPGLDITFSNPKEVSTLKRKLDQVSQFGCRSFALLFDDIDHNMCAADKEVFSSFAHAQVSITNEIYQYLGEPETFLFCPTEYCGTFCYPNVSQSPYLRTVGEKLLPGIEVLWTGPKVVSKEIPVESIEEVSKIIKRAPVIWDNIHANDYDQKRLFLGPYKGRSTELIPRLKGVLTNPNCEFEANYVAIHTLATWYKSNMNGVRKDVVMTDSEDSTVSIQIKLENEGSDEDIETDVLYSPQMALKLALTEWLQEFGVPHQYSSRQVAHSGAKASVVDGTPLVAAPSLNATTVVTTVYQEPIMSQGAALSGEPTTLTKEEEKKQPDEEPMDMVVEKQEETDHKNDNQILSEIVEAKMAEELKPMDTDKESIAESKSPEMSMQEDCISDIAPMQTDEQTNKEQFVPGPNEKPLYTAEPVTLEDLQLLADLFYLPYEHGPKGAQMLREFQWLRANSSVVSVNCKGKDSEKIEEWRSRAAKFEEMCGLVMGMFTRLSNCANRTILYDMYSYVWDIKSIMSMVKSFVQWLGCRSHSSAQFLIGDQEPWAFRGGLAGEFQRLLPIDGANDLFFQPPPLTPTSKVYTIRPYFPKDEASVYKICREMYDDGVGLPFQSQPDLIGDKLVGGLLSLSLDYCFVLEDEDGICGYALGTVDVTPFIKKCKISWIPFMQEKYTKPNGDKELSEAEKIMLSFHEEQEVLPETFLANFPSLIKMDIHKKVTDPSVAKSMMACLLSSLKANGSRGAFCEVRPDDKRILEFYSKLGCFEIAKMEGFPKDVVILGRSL
OGA (S400 O-GLCNAC), HEK-293T cells transfected with Tau-V5, sequence (O60502 whole entry): as above

In the case of `CC(=O)Nc1nc(F)c(CN2C[C@H](Oc3ccnc(C)c3)C[C@@H]2C)s1` [Example 1-110, N-(4-fluoro-5-(((2S,4R)-2-methyl-4-((2-methylpyridin-4-yl)oxy)pyrrolidin-1-yl)methyl)thiazol-2-yl)acetamide], the “RLM % Qh (%)” value [1] is reported as 39%, the IC50 [2] is reported as under 1 nM and the IC50 [3, 4] is reported as 1 nM. It also gave an efflux ratio at 2 h (P-gp (MDR1)) of 34.4.

With `CC(=O)Nc1nc(F)c(CN2C[C@H](Oc3cc(Cl)ccn3)C[C@@H]2C)s1` [Example 1-101, N-(5-(((2S,4R)-4-((4-chloropyridin-2-yl)oxy)-2-methylpyrrolidin-1-yl)methyl)-4-fluorothiazol-2-yl)acetamide] the “RLM % Qh (%)” value [1] was 88%, the IC50 [2] was under 1 nM and the IC50 [3, 4] was 3 nM. It also gave an efflux ratio at 2 h (P-gp (MDR1)) of 1.5.

With `COCCOc1cc(O[C@@H]2C[C@H](C)N(Cc3cnc(NC(C)=O)s3)C2)ncn1` [Example 1-122, N-(5-(((2S,4R)-4-((6-(2-methoxyethoxy)pyrimidin-4-yl)oxy)-2-methylpyrrolidin-1-yl)methyl)thiazol-2-yl)acetamide] the “RLM % Qh (%)” value [1] was 32%, the IC50 [2] was under 1 nM and the IC50 [3, 4] was 3 nM. For the same molecule, the efflux ratio at 2 h (P-gp (MDR1)) was 2.1.

With `CCN(C)c1cc(O[C@@H]2C[C@H](C)N(Cc3cnc(NC(C)=O)s3)C2)ncn1` [Example 1-132, N-(5-(((2S,4R)-4-((6-(ethyl(methyl)amino)pyrimidin-4-yl)oxy)-2-methylpyrrolidin-1-yl)methyl)thiazol-2-yl)acetamide] the “RLM % Qh (%)” value [1] was 76%, the IC50 [2] was under 1 nM and the IC50 [3, 4] was 2 nM. It also gave an efflux ratio at 2 h (P-gp (MDR1)) of 19.7.

In the case of `CC(=O)Nc1ncc(CN2C[C@H](Oc3cc(N(C)C)ncn3)C[C@@H]2C)s1` [Example 1-131, N-(5-(((2S,4R)-4-((6-(dimethylamino)pyrimidin-4-yl)oxy)-2-methylpyrrolidin-1-yl)methyl)thiazol-2-yl)acetamide], the “RLM % Qh (%)” value [1] is reported as 58%, the IC50 [2] is reported as under 1 nM and the IC50 [3, 4] is reported as 1 nM. It also gave an efflux ratio at 2 h (P-gp (MDR1)) of 17.8.

In the case of `CC(=O)Nc1ncc(CN2C[C@H](Oc3cc(F)ncn3)C[C@@H]2C)s1` [Example 1-78, N-(5-(((2S,4R)-4-((6-fluoropyrimidin-4-yl)oxy)-2-methylpyrrolidin-1-yl)methyl)thiazol-2-yl)acetamide], the “RLM % Qh (%)” value [1] is reported as 47%, the IC50 [2] is reported as 2.4 nM and the IC50 [3, 4] is reported as 6 nM. The efflux ratio at 2 h (P-gp (MDR1)) was 4.1.

With `CC(=O)Nc1ncc(CN2C[C@H](Oc3cc(C)c(F)cn3)C[C@@H]2C)s1` [Example 1-87, N-(5-(((2S,4R)-4-((5-fluoro-4-methylpyridin-2-yl)oxy)-2-methylpyrrolidin-1-yl)methyl)thiazol-2-yl)acetamide] the “RLM % Qh (%)” value [1] was 81%, the IC50 [2] was under 1 nM and the IC50 [3, 4] was under 1 nM. It also gave an efflux ratio at 2 h (P-gp (MDR1)) of 1.8.

In the case of `CC(=O)Nc1ncc(CN2C[C@H](Oc3cc(C)nc(C)c3)C[C@H]2C)s1` [Example 1-61, N-(5-(((2R,4R)-4-((2,6-dimethylpyridin-4-yl)oxy)-2-methylpyrrolidin-1-yl)methyl)thiazol-2-yl)acetamide], the “RLM % Qh (%)” value [1] is reported as 31%, the IC50 [2] is reported as 7 nM and the IC50 [3, 4] is reported as 39 nM. The efflux ratio at 2 h (P-gp (MDR1)) was 45.2.

With `CC(=O)Nc1nc(F)c(CN2C[C@H](Oc3cc(C)ncc3C)C[C@@H]2C)s1` [Example 1-107, N-(5-(((2S,4R)-4-((2,5-dimethylpyridin-4-yl)oxy)-2-methylpyrrolidin-1-yl)methyl)-4-fluorothiazol-2-yl)acetamide] the “RLM % Qh (%)” value [1] was 58%, the IC50 [2] was 1.7 nM and the efflux ratio at 2 h (P-gp (MDR1)) was 17.2.

With `CC(=O)Nc1nc(F)c(CN2C[C@@H](Oc3cc(C)nc(C)c3)CC[C@@H]2C)s1` [Example 1-56, N-(5-(((2S,5S)-5-((2,6-dimethylpyridin-4-yl)oxy)-2-methylpiperidin-1-yl)methyl)-4-fluorothiazol-2-yl)acetamide] the “RLM % Qh (%)” value [1] was 91%, the IC50 [2] was under 1 nM and the efflux ratio at 2 h (P-gp (MDR1)) was 21.8.

For `CC(=O)Nc1ncc(CN2C[C@H](Oc3ncc(C)nc3C)C[C@@H]2C)s1` [Example 1-81, N-(5-(((2S,4R)-4-((3,5-dimethylpyrazin-2-yl)oxy)-2-methylpyrrolidin-1-yl)methyl)thiazol-2-yl)acetamide], the “RLM % Qh (%)” value [1] was 74%, the IC50 [2] was 8.4 nM and the efflux ratio at 2 h (P-gp (MDR1)) was 7.3.

With `CC(=O)Nc1nc(F)c(CN2C[C@H](Oc3ncc(C)nc3C)C[C@@H]2C)s1` [Example 1-106, N-(5-(((2S,4R)-4-((3,5-dimethylpyrazin-2-yl)oxy)-2-methylpyrrolidin-1-yl)methyl)-4-fluorothiazol-2-yl)acetamide] the “RLM % Qh (%)” value [1] was 86%, the IC50 [2] was 2.4 nM and the efflux ratio at 2 h (P-gp (MDR1)) was 4.6.

With `CC(=O)Nc1ncc(CN2C[C@H](Oc3cc(OC4CN(C)C4)ncn3)C[C@@H]2C)s1` [Example 1-125, N-(5-(((2S,4R)-2-methyl-4-((6-((1-methylazetidin-3-yl)oxy)pyrimidin-4-yl)oxy)pyrrolidin-1-yl)methyl)thiazol-2-yl)acetamide] the “RLM % Qh (%)” value [1] was 54%, the IC50 [2] was 1.4 nM and the efflux ratio at 2 h (P-gp (MDR1)) was 1.

With `COc1cc(O[C@H]2C[C@@H](C)N(Cc3sc(NC(C)=O)nc3F)C2)ncn1` [Example 1-31, N-(4-fluoro-5-(((2R,4S)-4-((6-methoxypyrimidin-4-yl)oxy)-2-methylpyrrolidin-1-yl)methyl)thiazol-2-yl)acetamide] the IC50 [2] was 2900 nM and the IC50 [3, 4] was over 1000 nM.

With `CC(=O)Nc1ncc(CN2C[C@H](Oc3cc(OCC(F)(F)F)ncn3)C[C@@H]2C)s1` [Example 1-77] the “RLM % Qh (%)” value [1] was 58%, the IC50 [2] was under 1 nM and the IC50 [3, 4] was 10 nM.

For `COc1cc(O[C@@H]2C[C@H](C)N(Cc3sc(NC(C)=O)nc3F)C2)ncn1` [Example 1-22, N-(4-Fluoro-5-(((2S,4R)-4-((6-methoxypyrimidin-4-yl)oxy)-2-methylpyrrolidin-1-yl)methyl)thiazol-2-yl)acetamide], the IC50 [2] was under 1 nM and the IC50 [3, 4] was 2 nM.

`[2H][C@@]1(Oc2cc(OC)ncn2)C[C@H](C)N(Cc2sc(NC(C)=O)nc2F)C1` (single isomer, unassigned) [Example 1-165] showed an IC50 [2] of under 1 nM and an IC50 [3, 4] of 2 nM.

With `COc1cncnc1O[C@@H]1C[C@H](C)N(Cc2cnc(NC(C)=O)s2)C1` [Example 1-74] the IC50 [2] was 6.4 nM and the IC50 [3, 4] was 13 nM.

In the case of `CC(=O)Nc1nc(F)c(CN2C[C@H](Oc3cc(N4CCC4)ncn3)C[C@@H]2C)s1` [Example 1-24, N-(5-(((2S,4R)-4-((6-(azetidin-1-yl)pyrimidin-4-yl)oxy)-2-methylpyrrolidin-1-yl)methyl)-4-fluorothiazol-2-yl)acetamide], the IC50 [2] is reported as under 1 nM and the IC50 [3, 4] is reported as 1 nM.

With `CC(=O)Nc1nc(F)c(CN2C[C@H](Oc3cc(N4CC(F)(F)C4)ncn3)C[C@@H]2C)s1` [Example 1-26, N-(5-(((2S,4R)-4-((6-(3,3-difluoroazetidin-1-yl)pyrimidin-4-yl)oxy)-2-methylpyrrolidin-1-yl)methyl)-4-fluorothiazol-2-yl)acetamide] the IC50 [2] was under 1 nM and the IC50 [3, 4] was 1 nM.

For `CC(=O)Nc1ncc(CN2C[C@H](Oc3cc(Cl)ncn3)C[C@@H]2C)s1` [Example 1-21, N-(5-(((2S,4R)-4-((6-chloropyrimidin-4-yl)oxy)-2-methylpyrrolidin-1-yl)methyl)thiazol-2-yl)acetamide], the IC50 [2] was under 1 nM, the IC50 [3, 4] was 7 nM and the IC50 ([3]; repeated assay, value marked with asterisk (*)) was 8 nM. It also gave an efflux ratio at 2 h (P-gp (MDR1)) of 3.8.

In the case of `CNc1cc(O[C@@H]2C[C@H](C)N(Cc3cnc(NC(C)=O)s3)C2)ncn1` [Example 1-137, N-(5-(((2S,4R)-2-methyl-4-((6-(methylamino)pyrimidin-4-yl)oxy)pyrrolidin-1-yl)methyl)thiazol-2-yl)acetamide], the IC50 [2] is reported as under 1 nM and the IC50 [3, 4] is reported as 2 nM.
